Source: paper PMC9657696, “Novel BH4-BCL-2 Domain Antagonists Induce BCL-2-Mediated Apoptosis in Triple-Negative Breast Cancer” (Cancers, 2022)
Read-outs that look alike come from different tables or passages of the source.

How the values were obtained:
BT549 cells = assay: MTT cell viability assay, BT549; format: cell-based; conditions: Homo sapiens
Procedure: An MTT (3-(4,5-dimethylthiazol-2-yl)-2,5-diphenyltetrazolium bromide)-based colorimetric assay was performed to measure the cell viability. On a 96-well plate, cells were seeded at a density of 3000–5000 cells/well. The cell number for the assay was decided based on the exponential growth of untreated cells. The cells were treated with compounds for 72 h followed by incubation with MTT for 4 h at 37 °C. The formazan crystals were dissolved in DMSO and absorbance was measured at 540 nm. The percentage viability was calculated as % cell viability = (OD treated cells/OD control cells) × 100, and the IC50 was estimated by curve-fitting using the non-linear regression of a dose–response curve. The experiments were repeated at least two to three times.
The top 29 lead molecules, guided by the in silico results, were subjected to further in vitro validation by assessing the cellular cytotoxicity in both cancer (Figure 3a) and normal cell lines (Supplementary Figure S2a) using the MTT assay. Moreover, we performed MTT (Supplementary Figure S3c) and Annexin V assays on an additional cell line, BT549, a triple-negative breast cancer model, to validate the activity of the compounds (Supplementary Figure S4). […] We also provided the AUC plots for the top three compounds for a better understanding of the activity (Supplementary Figure S5). […]

MDA-MB-231 xenografts = assay: MDA-MB-231 xenograft in athymic mice; format: in vivo
Procedure: Mice were sheltered in the animal facility of Sri Ramachandra Medical College and Research Institute (Chennai, India), which has been certified as a pathogen-free animal house for performing mice experiments. All the methods were carried out according to the IAEC guidelines and regulations. Experimental procedures were framed and approved by the Institutional Animal Ethical Committee (IAEC) (IAEC approval number: IAEC/57/SRIHER/639/2019). The entire study was in accordance with the ARRIVE guidelines to ensure the safety of the animals. The sizes of the mice groups were chosen in accordance with statistical significance; the measurements and analysis were performed in an unbiased manner.
4–6 week-old female athymic mice were transplanted with MDA-MB-231 triple-negative breast tumor cells. The growth media with MDA-MB-231 cells and Matrigel (BD Biosciences) at a 1:1 ratio was mixed and injected into mice. The tumor lengths and widths were measured with an electronic caliper 2–3 times a week. The tumor volume was calculated using the formula: (length × width^2)/2. All of the mice were randomized after 10 days, as the tumor volume reached approximately 80–90 mm^3. A total of 25 mice were sorted into 5 treatment groups, followed by a compound treatment (SM216, SM396, SM949, and ABT199) or vehicle (n = 5 for each group). The drug compounds were formulated in PBS and administrated as i.p doses (100 mg/Kg w) for two schedules per week. Tumor growth inhibition (TGImax) was calculated using the following equation: (1) Tumor Growth Inhibition =1−mean of volume of treated at day x−mean of volume treated at day 0/mean of volume of control at day x−mean of volume of control at day 0×100
As the tumor size exceeded 600 mm^3, we euthanized the mice for ethical reasons. The euthanasia procedure used was carbon dioxide asphyxiation followed by cervical dislocation. The mean of the tumor volume ± SEM for different time points was represented until we sacrificed at least one mouse in a group.
To test the in vivo anti-cancer efficacy of the novel small molecules viz. SM216, SM396, and SM949, 4–6 weeks old female athymic mice were xenografted with MDA-MB-231 cells on the mammary fat pads and palpable tumors were induced. […] Tumor volumes were measured at regular intervals and the data were tabulated. […] The growth kinetics and maximal tumor growth inhibition (TGImax) are depicted as tumor volumes (five groups of mice treated with different drugs) in Figure 6e,f. The average tumor volume for all groups on day 0 of treatment was 92.77 mm^3. We observed that all three lead molecules inhibited tumor growth efficiently compared to the vehicle control. […] These compounds achieved regression of 60% after 20 days of treatment. […] Moreover, these compounds were well tolerated with no weight loss and hemolysis in all treatment groups. The survival was 100% for all treatment mice groups until the termination of the study. […] A decrease in the expression of PCNA was observed upon treatment with SM396 compared to the vehicle control.

IC50 (BT549 cells; BT-549, Supplementary Figure S3c legend, read-out: IC50 (dose-response curve fitting)): 7.19 µM
IC50 (BT549 cells; BT-549, read-out: IC50 (non-linear regression of dose-response curves)): 7.2 µM
SMILES: CC1(C)CCC(CN2CCN(c3ccc(C(=O)NS(=O)(=O)c4ccc(NCC5CCOCC5)c([N+](=O)[O-])c4)c(Oc4cnc5[nH]ccc5c4)c3)CC2)=C(c2ccc(Cl)cc2)C1 [ABT-199, venetoclax]
Tumor Volume, Mean (MDA-MB-231 xenografts; Day 0, i.p. 100 mg/kg, two schedules per week): 95.35 mm^3
Tumor Volume, Mean (MDA-MB-231 xenografts; Day 6, i.p. 100 mg/kg): 162.15 mm^3
Tumor Volume, Mean (MDA-MB-231 xenografts; Day 9, i.p. 100 mg/kg (column head printed SEM)): 313.94 mm^3
Tumor Volume, Mean (MDA-MB-231 xenografts; Day 13, i.p. 100 mg/kg): 313.03 mm^3
Tumor Volume, Mean (MDA-MB-231 xenografts; Day 15, upon 4 doses, i.p. 100 mg/kg): 371.94 mm^3
Tumor Volume, Mean (MDA-MB-231 xenografts; Day 17, i.p. 100 mg/kg): 424.83 mm^3
Tumor Volume, Mean (MDA-MB-231 xenografts; Day 20, i.p. 100 mg/kg): 382.6 mm^3
